This assay addresses human Kv1.3 (Homo sapiens (Human), UniProt P22001). The assay can be described thus: Kv1.3 potency evaluation, automated patch clamp electrophysiology (QPatch HT) in CHO-Kv1.3 cells. The class given is cell-based. The note with it: whole-cell QPatch HT, % inhibition of charge, step to +30 mV, four concentrations, N≥3 cells, read-out: hKv1.3 IC50. The text has this:
Biological Assays Kv1.3 Potency Evaluation Electrophysiology Recordings
A proprietary Chinese hamster ovary cell line stably expressing exogenous human a-subunits of Kv1.3 (CHO-Kv1.3) channel, validated biophysically and pharmacologically in house, was used to assess the ability of test compounds to block Kv1.3 currents using automated patch clamp electrophysiology. The QPatch HT system (Sophion Bioscience A/S, Denmark) was used with the conventional whole-cell configuration. This system is an automated, chip-based planar patch clamp device allowing for up to 48 parallel independent experiments in one experimental assay run. Cells are added to each well and drawn by suction onto a small aperture to obtain a Gigaohm seal between the cell membrane and treated silicon surface, and whole-cell recordings initiated after access is achieved by suction and/or voltage pulses. The QPatch HT uses static perfusion, whereby a small volume of recording solution or drug is added to a reservoir on the chip and the solution perfuses across the cell through quartz-lined microfluidic channels; this solution is removed by capillary action when the next sample application is made.
CHO-Kv1.3 cells were prepared for experiments by dissociation from T175 cell culture flasks using trypsin-EDTA (0.05%), cells were kept in serum free media in the cell hotel on board the QPatch HT. These cells were sampled, washed and re-suspended in extracellular recording solution by the QPatch HT immediately before application to the recording well site on the chip. Experiments were performed using the following solutions; extracellular solution contained (in mM); 150 NaCl, 10 KCl, 1 MgCl2, 3 CaCl2), 10 Glucose and 10 HEPES (pH 7.4, NaOH) and intracellular solution contained (in mM); 20 KCl, 120 KF, 10 HEPES, 10 EGTA, 5 ATP (pH 7.2, KOH).
The potency (Inhibitory Concentration 50%, IC50) of synthesized compounds against Kv1.3 was determined from concentration-response relationships established by cumulatively applying four escalating concentrations of test compound to an individual cell and a minimum of N≥3 individual cells of data per compound were used to generate the IC50 value.
On achieving the whole-cell configuration; two additions of vehicle (0.1-0.3% DMSO v/v) were applied to each cell in two bolus additions with a two minute recording period between each addition (four minutes total recording time). Following the vehicle period, four concentrations of test sample were applied as two bolus additions per test concentration at two minute intervals, and the effects on current measured during the four minute recording period.
Currents were elicited using a single step voltage protocol. From a holding potential of −80 mV the cell is depolarised to +30 mV (500 ms) resulting in an outward current before finally repolarising the cell by returning to the holding potential. The command voltage was applied at a frequency of 0.067 Hz throughout the duration of the experiment. For each sweep of the voltage protocol membrane current and the passive properties of the individual cells were recorded by QPatch assay software (version 5.2). Cursors were placed to calculate the charge (integral of the current recorded during cursor interval) between 2-490 ms (0.4-99%) of the 500 ms step to +30 mV.
The % inhibition of charge for each test concentration application period was calculated as the reduction in mean charge at the end of each concentration test period relative to the charge value measured at the end of the control (i.e. vehicle) period. Sigmoidal concentration response curves (four parameter logistic curve) were fitted to the % inhibition rom which the IC50 was determined. Curve fits were constrained at 0 and 100%.
For orientation: Patch clamp records ionic current or voltage across a cell membrane.

Each structure is given as a SMILES string. pIC50: −log10 of the molar value.

The pIC50 is the IC50 on a negative log10 scale, so that one unit is a factor of ten.

Chain of human Kv1.3 (P22001 whole entry): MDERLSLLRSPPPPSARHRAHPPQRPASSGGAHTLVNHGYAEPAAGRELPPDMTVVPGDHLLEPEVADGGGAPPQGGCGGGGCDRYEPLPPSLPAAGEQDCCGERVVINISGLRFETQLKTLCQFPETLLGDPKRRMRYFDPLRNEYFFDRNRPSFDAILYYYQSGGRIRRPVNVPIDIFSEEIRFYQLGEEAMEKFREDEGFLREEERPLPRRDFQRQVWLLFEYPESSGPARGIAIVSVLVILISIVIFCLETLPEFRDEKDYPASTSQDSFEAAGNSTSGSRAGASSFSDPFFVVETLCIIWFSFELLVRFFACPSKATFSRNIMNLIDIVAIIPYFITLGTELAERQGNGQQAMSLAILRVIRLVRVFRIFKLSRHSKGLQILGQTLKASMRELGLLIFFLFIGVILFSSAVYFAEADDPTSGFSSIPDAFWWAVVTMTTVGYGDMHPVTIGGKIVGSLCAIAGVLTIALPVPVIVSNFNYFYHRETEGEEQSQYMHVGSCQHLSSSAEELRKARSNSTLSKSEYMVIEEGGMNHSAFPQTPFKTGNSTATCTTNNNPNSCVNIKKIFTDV

Regarding `CC1(C)N=C(C23CC(N(Cc4ccc(Cl)c(F)c4)S(=O)(=O)c4ccccc4)(C2)C3)N[C@H]1C(=O)NCC1(F)CC1` (mixture of isomers) [Example 6], the pIC50 is 7.70.
The value for `CCCS(=O)(=O)N(Cc1ccc(Cl)c(Cl)c1)C12CC(C3=NC(C)(C)[C@H](C(=O)NCCCC(F)(F)F)N3)(C1)C2` (mixture of isomers) [Example 216] was 6.79; that for `CC1(C)N=C(C23CC(N(Cc4ccc(Cl)c(Cl)c4)S(=O)(=O)CCC(F)F)(C2)C3)N[C@H]1C(=O)NC[C@H]1CC1(F)F` (mixture of isomers) [Example 179] was 6.98.
The value for `CC1(C)N=C(C23CC(N(Cc4ccc(Cl)cc4)S(=O)(=O)C4CCCC4)(C2)C3)N[C@H]1C(=O)NCCC(F)(F)F` (mixture of isomers) [Example 121] was 7.12; that for `CC1(C)N=C(C23CC(N(Cc4ccc(Cl)c(F)c4)S(=O)(=O)c4ccccc4)(C2)C3)N[C@H]1C(=O)N1CCC(F)(F)C2(CC2)C1` (mixture of isomers) [Example 166] was 7.00; that for `CCCS(=O)(=O)N(Cc1ccc(Cl)c(Cl)c1)C12CC(C3=NC(C)(C)[C@H](C(=O)NCCC(F)(F)F)N3)(C1)C2` (mixture of isomers) [Example 136] was 7.09.
The same measure for `CC(NC(=O)[C@@]1(C)CN=C(C23CC(N(Cc4ccc(C(F)(F)F)cc4)S(=O)(=O)c4ccc(F)cc4)(C2)C3)N1)C1CCC1` (mixture of isomers) [Example 238]: 6.66; for `CC1(C)N=C(C23CC(N(Cc4ccc(Cl)c(F)c4)S(=O)(=O)c4ccccc4)(C2)C3)N[C@H]1C(=O)N1CCCC(F)(F)CC1` (mixture of isomers) [Example 131]: 7.11.
On to `NC(=O)C1(Cc2ccccc2)CN=C(C23CC(N(Cc4ccc(C(F)(F)F)cc4)S(=O)(=O)c4ccc(F)cc4)(C2)C3)N1` (stereo not shown) [Example 263], for which the pIC50 was 6.40.
Turning to `CN(C[C@H]1CC1(F)F)C(=O)[C@@H]1NC(C23CC(N(Cc4ccc(Cl)c(F)c4)S(=O)(=O)c4ccccc4)(C2)C3)=NC1(C)C` (mixture of isomers) [Example 83], the pIC50 is 7.21.
The same measure for `CC1(C)N=C(C23CC(N(Cc4ccc(Cl)cc4)S(=O)(=O)c4ccccc4C(N)=O)(C2)C3)N[C@H]1C(=O)NCCC(F)(F)F` (mixture of isomers) [Example 292]: 5.53.
The same measure for `CC1(C)N=C(C23CC(N(Cc4ccc(Cl)cc4)S(=O)(=O)c4ccccc4)(C2)C3)N[C@H]1C(=O)N1CCC(F)(F)CC1` (mixture of isomers) [Example 76]: 7.22; for `CC1(C)N=C(C23CC(N(Cc4ccc(Cl)cc4)S(=O)(=O)N4CCC(F)(F)C4)(C2)C3)N[C@H]1C(=O)NCCC(F)(F)F` (mixture of isomers) [Example 212]: 6.83.
The value for `CC1(C)N=C(C23CC(N(Cc4ccc(Cl)c(F)c4)S(=O)(=O)c4ccccc4)(C2)C3)N[C@H]1C(=O)NC1(CC(F)(F)F)CC1` (mixture of isomers) [Example 118] was 7.13; that for `CC1N=C(C23CC(N(Cc4ccc(C(F)(F)F)cc4)S(=O)(=O)c4ccc(F)cc4)(C2)C3)N[C@@]1(C)C(=O)NCC1CCC1` (mixture of isomers) [Example 184] was 6.96.
For `CC(C)CS(=O)(=O)N(Cc1ccc(Cl)cc1)C12CC(C3=NC(C)(C)[C@H](C(=O)NCCC(F)(F)F)N3)(C1)C2` (mixture of isomers) [Example 54], the pIC50 is 7.30.
As to `CC1(C)N=C(C23CC(N(Cc4ccc(Cl)cc4F)S(=O)(=O)c4ccccc4)(C2)C3)N[C@H]1C(=O)NCCC(F)(F)F` (mixture of isomers) [Example 9], the pIC50 is 7.55.
Consider `C[C@H]1CCN(C(=O)[C@@H]2NC(C34CC(N(Cc5ccc(Cl)c(F)c5)S(=O)(=O)c5ccccc5)(C3)C4)=NC2(C)C)C1` (mixture of isomers) [Example 85], for which the pIC50 was 7.21.
The value for `CC1(C)N=C(C23CC(N(Cc4ccc(Cl)cc4)S(=O)(=O)c4ccc[nH]c4=O)(C2)C3)N[C@H]1C(=O)NCCC(F)(F)F` (mixture of isomers) [Example 295] was 4.67; that for `CC1(C)N=C(C23CC(N(Cc4ccc(Cl)cc4)S(=O)(=O)C(C)(C)C)(C2)C3)N[C@H]1C(=O)NCCC(F)(F)F` (mixture of isomers) [Example 287] was 6.01; that for `CN(CC1CCC1)C(=O)[C@@]1(C)CN=C(C23CC(N(Cc4ccc(C(F)(F)F)cc4)S(=O)(=O)c4ccc(F)cc4)(C2)C3)N1` (mixture of isomers) [Example 256] was 6.47.
Regarding `CC1(C)N=C(C23CC(N(Cc4ccc(Cl)cc4)S(=O)(=O)c4cccc(C#N)c4)(C2)C3)N[C@H]1C(=O)NCCC(F)(F)F` (mixture of isomers) [Example 70], the pIC50 was 7.25.
The same measure for `CC1(C)CC(CNC(=O)[C@@]2(C)CN=C(C34CC(N(Cc5ccc(C(F)(F)F)cc5)S(=O)(=O)c5ccc(F)cc5)(C3)C4)N2)C1` (mixture of isomers) [Example 289]: 5.98.
In the case of `CC1(C)N=C(C23CC(N(Cc4ccc(Cl)c(F)c4)S(=O)(=O)c4ccccc4)(C2)C3)N[C@H]1C(=O)N1CC(F)(F)C1` (mixture of isomers) [Example 55], the pIC50 is 7.30.
The same measure for `CCCC1(C(=O)NC(C)C)CN=C(C23CC(N(Cc4ccc(C(F)(F)F)cc4)S(=O)(=O)c4ccc(F)cc4)(C2)C3)N1` (stereo not shown) [Example 182]: 6.97; for `C[C@]1(C(=O)Nc2ccccc2)CN=C(C23CC(N(Cc4ccc(C(F)(F)F)cc4)S(=O)(=O)c4ccc(F)cc4)(C2)C3)N1` (mixture of isomers) [Example 293]: 5.39.
The same measure for `CC1(C)N=C(C23CC(N(Cc4ccc(Cl)c(Cl)c4)S(=O)(=O)CCC(F)F)(C2)C3)N[C@H]1C(=O)NCC1CC(F)(F)C1` (mixture of isomers) [Example 205]: 6.87; for `CC1(C)N=C(C23CC(N(Cc4ccc(Cl)cc4)S(=O)(=O)CCCCF)(C2)C3)N[C@H]1C(=O)NCCC(F)(F)F` (mixture of isomers) [Example 102]: 7.17.
`CC1(C)N=C(C23CC(N(Cc4ccc(Cl)c(F)c4)S(=O)(=O)c4ccccc4)(C2)C3)N[C@H]1C(=O)NCCC(F)(F)F` (mixture of isomers) [Example 13]: the pIC50 is 7.43.
The same measure for `CC1(C)N=C(C23CC(N(Cc4ccc(Cl)c(F)c4)S(=O)(=O)c4ccccc4)(C2)C3)N[C@H]1C(=O)N1CCCC12CCC2` (mixture of isomers) [Example 71]: 7.24; for `CC(C)S(=O)(=O)N(Cc1ccc(Cl)cc1)C12CC(C3=NC(C)(C)[C@H](C(=O)NCCC(F)(F)F)N3)(C1)C2` (mixture of isomers) [Example 252]: 6.50.
The value for `CC(F)(F)CCS(=O)(=O)N(Cc1ccc(Cl)c(F)c1)C12CC(C3=NC(C)(C)[C@H](C(=O)NCCC(F)(F)F)N3)(C1)C2` (mixture of isomers) [Example 111] was 7.14; that for `C[C@]1(C(=O)NCC2CC(F)(F)C2)CN=C(C23CC(N(Cc4ccc(C(F)(F)F)cc4)S(=O)(=O)c4ccc(F)cc4)(C2)C3)N1` (mixture of isomers) [Example 227] was 6.73; that for `CC1(C)N=C(C23CC(N(Cc4ccc(F)cc4)S(=O)(=O)c4ccccc4)(C2)C3)NC1C(=O)NCCC(F)(F)F` (stereo not shown) [Example 97] was 7.18.
The value for `CC1(C)N=C(C23CC(N(Cc4ccc(Cl)c(Cl)c4)S(=O)(=O)c4ccccc4)(C2)C3)N[C@H]1C(=O)N1CC2(C1)CC(F)(F)C2` (mixture of isomers) [Example 195] was 6.91.
Take `CC1(C)N=C(C23CC(N(Cc4ccc(Cl)c(F)c4)S(=O)(=O)c4ccccc4)(C2)C3)N[C@H]1C(=O)N1CC[C@H](C(F)(F)F)C1` (mixture of isomers) [Example 171]: the negative logarithm of the IC50 (pIC50) was 6.99.
The value for `CN(C)C(=O)[C@]1(C)CN=C(C23CC(N(Cc4ccc(C(F)(F)F)cc4)S(=O)(=O)c4ccc(F)cc4)(C2)C3)N1` (mixture of isomers) [Example 230] was 6.70.

The record behind these values is US12128028B2, “Heterocyclic sulfonamide derivatives and pharmaceutical uses thereof” (METRION BIOSCIENCES LIMITED, priority 2018, dated 2024).
